# According to ChEMBL document CHEMBL2057100, “The optimization of pyridazinone series of glucan synthase inhibitors” (Bioorg Med Chem Lett, 2012):
# Target: T1, Beta-1,3-glucan synthase (Candida albicans, UniProt O13383)
# T1 sequence (O13383 whole entry): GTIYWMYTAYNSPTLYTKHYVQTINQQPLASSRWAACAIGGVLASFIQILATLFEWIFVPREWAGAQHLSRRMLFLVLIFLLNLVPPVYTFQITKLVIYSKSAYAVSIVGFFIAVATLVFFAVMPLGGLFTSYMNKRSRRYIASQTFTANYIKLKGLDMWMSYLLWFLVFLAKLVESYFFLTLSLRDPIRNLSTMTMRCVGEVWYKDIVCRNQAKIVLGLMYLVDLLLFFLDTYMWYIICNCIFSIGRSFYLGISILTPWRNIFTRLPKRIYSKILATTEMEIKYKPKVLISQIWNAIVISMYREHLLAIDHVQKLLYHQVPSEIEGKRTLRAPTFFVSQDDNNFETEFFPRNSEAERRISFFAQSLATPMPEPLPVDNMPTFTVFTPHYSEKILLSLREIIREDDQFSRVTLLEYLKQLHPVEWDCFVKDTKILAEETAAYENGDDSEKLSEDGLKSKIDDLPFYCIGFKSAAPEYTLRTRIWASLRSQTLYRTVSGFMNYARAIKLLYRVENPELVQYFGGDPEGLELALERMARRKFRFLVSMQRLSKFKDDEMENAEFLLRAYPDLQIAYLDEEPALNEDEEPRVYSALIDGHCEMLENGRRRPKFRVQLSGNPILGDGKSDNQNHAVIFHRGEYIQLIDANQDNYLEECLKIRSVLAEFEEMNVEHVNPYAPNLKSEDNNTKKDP
# Test: Inhibition of 1,3-beta-D-glucan synthase in Candida albicans BWP17 membranes
# Format: cell membranes
# Conditions: not given
row,SMILES,IC50 [nM]
1,Cc1cc(CS(=O)(=O)N2CCN(c3cnn(-c4cccc(Cl)c4)c(=O)c3OCC3(C)CC3)CC2)ccc1N,143
2,Nc1ccc(CS(=O)(=O)N2CCN(c3cnn(-c4cc(F)cc(F)c4)c(=O)c3OC3CCCC3)CC2)cc1,110
3,Cc1cc(CS(=O)(=O)N2CCN(c3cnn(-c4cc(F)cc(F)c4)c(=O)c3OCC3(C)CC3)CC2)ccc1N,125
4,O=c1c(OC2CCCC2)c(N2CCN(S(=O)(=O)Cc3ccncc3)CC2)cnn1-c1cc(F)cc(F)c1,564
5,CC1(COc2c(N3CCN(S(=O)(=O)Cc4ccc(N)c(Cl)c4)CC3)cnn(-c3cc(F)cc(F)c3)c2=O)CC1,69
6,CNc1ccc(CS(=O)(=O)N2CCN(c3cnn(-c4cccc(Cl)c4)c(=O)c3OCC3(C)CC3)CC2)cc1,17.9
7,O=c1c(OC2CCCC2)c(N2CCN(S(=O)(=O)Cc3ccc(Cl)cc3)CC2)cnn1-c1cccc(Cl)c1,142
8,CC1(COc2c(N3CCN(S(=O)(=O)Cc4cccnc4N)CC3)cnn(-c3cccc(Cl)c3)c2=O)CC1,239
9,Nc1ccc(CS(=O)(=O)N2CCN(c3cnn(-c4cccc(Cl)c4)c(=O)c3OC3CCCC3)CC2)cc1,91.9
10,CC(C)c1cc(CS(=O)(=O)N2CCN(c3cnn(-c4cccc(Cl)c4)c(=O)c3OCC3(C)CC3)CC2)ccc1N,631
11,O=c1c(OC2CCCC2)c(N2CCN(S(=O)(=O)Cc3cc(C(F)(F)F)cc(C(F)(F)F)c3)CC2)cnn1-c1cccc(Cl)c1,> 226000
12,O=c1c(OC2CCCC2)c(N2CCN(S(=O)(=O)Cc3ccc(F)cc3)CC2)cnn1-c1cccc(Cl)c1,110
13,CC1(COc2c(N3CCN(S(=O)(=O)Cc4ccc(N)c(F)c4)CC3)cnn(-c3cc(F)cc(F)c3)c2=O)CC1,53.2
14,CN(C)c1ccc(CS(=O)(=O)N2CCN(c3cnn(-c4cccc(Cl)c4)c(=O)c3OCC3(C)CC3)CC2)cc1,87.4
15,CC1(COc2c(N3CCN(S(=O)(=O)Cc4ccc(N)c(C(N)=O)c4)CC3)cnn(-c3cccc(Cl)c3)c2=O)CC1,511
16,O=C(O)c1ccc(CS(=O)(=O)N2CCN(c3cnn(-c4cccc(Cl)c4)c(=O)c3OC3CCCC3)CC2)cc1,4190
17,O=c1c(OC2CCCC2)c(N2CCN(S(=O)(=O)Cc3ccccc3)CC2)cnn1-c1cc(F)cc(F)c1,56.5

# Test system: Nakaseomyces glabratus
# Test: Antifungal activity against Candida glabrata C624 by broth dilution method
# Format: functional
# Conditions: read-out: MIC100
row,SMILES,MIC [µg/mL]
1,Cc1cc(CS(=O)(=O)N2CCN(c3cnn(-c4cccc(Cl)c4)c(=O)c3OCC3(C)CC3)CC2)ccc1N,0.13
2,Nc1ccc(CS(=O)(=O)N2CCN(c3cnn(-c4cc(F)cc(F)c4)c(=O)c3OC3CCCC3)CC2)cc1,0.26
3,Cc1cc(CS(=O)(=O)N2CCN(c3cnn(-c4cc(F)cc(F)c4)c(=O)c3OCC3(C)CC3)CC2)ccc1N,0.13
4,O=c1c(OC2CCCC2)c(N2CCN(S(=O)(=O)Cc3ccncc3)CC2)cnn1-c1cc(F)cc(F)c1,0.2
5,CC1(COc2c(N3CCN(S(=O)(=O)Cc4ccc(N)c(Cl)c4)CC3)cnn(-c3cc(F)cc(F)c3)c2=O)CC1,< 0.02
6,CNc1ccc(CS(=O)(=O)N2CCN(c3cnn(-c4cccc(Cl)c4)c(=O)c3OCC3(C)CC3)CC2)cc1,0.78
7,O=c1c(OC2CCCC2)c(N2CCN(S(=O)(=O)Cc3ccc(Cl)cc3)CC2)cnn1-c1cccc(Cl)c1,0.31
8,CC1(COc2c(N3CCN(S(=O)(=O)Cc4cccnc4N)CC3)cnn(-c3cccc(Cl)c3)c2=O)CC1,0.06
9,Nc1ccc(CS(=O)(=O)N2CCN(c3cnn(-c4cccc(Cl)c4)c(=O)c3OC3CCCC3)CC2)cc1,0.2
10,CC(C)c1cc(CS(=O)(=O)N2CCN(c3cnn(-c4cccc(Cl)c4)c(=O)c3OCC3(C)CC3)CC2)ccc1N,16.7
11,O=c1c(OC2CCCC2)c(N2CCN(S(=O)(=O)Cc3cc(C(F)(F)F)cc(C(F)(F)F)c3)CC2)cnn1-c1cccc(Cl)c1,> 50
12,O=c1c(OC2CCCC2)c(N2CCN(S(=O)(=O)Cc3ccc(F)cc3)CC2)cnn1-c1cccc(Cl)c1,0.05
13,CC1(COc2c(N3CCN(S(=O)(=O)Cc4ccc(N)c(F)c4)CC3)cnn(-c3cc(F)cc(F)c3)c2=O)CC1,0.06
14,CN(C)c1ccc(CS(=O)(=O)N2CCN(c3cnn(-c4cccc(Cl)c4)c(=O)c3OCC3(C)CC3)CC2)cc1,0.06
15,CC1(COc2c(N3CCN(S(=O)(=O)Cc4ccc(N)c(C(N)=O)c4)CC3)cnn(-c3cccc(Cl)c3)c2=O)CC1,8.34
16,O=C(O)c1ccc(CS(=O)(=O)N2CCN(c3cnn(-c4cccc(Cl)c4)c(=O)c3OC3CCCC3)CC2)cc1,25
17,O=c1c(OC2CCCC2)c(N2CCN(S(=O)(=O)Cc3ccccc3)CC2)cnn1-c1cc(F)cc(F)c1,0.4

# Test system: Candida albicans
# Test: Antifungal activity against Candida albicans C693 by broth dilution method
# Format: functional
# Conditions: read-out: MIC100
row,SMILES,MIC [µg/mL]
1,Cc1cc(CS(=O)(=O)N2CCN(c3cnn(-c4cccc(Cl)c4)c(=O)c3OCC3(C)CC3)CC2)ccc1N,1.04
2,Nc1ccc(CS(=O)(=O)N2CCN(c3cnn(-c4cc(F)cc(F)c4)c(=O)c3OC3CCCC3)CC2)cc1,1.04
3,Cc1cc(CS(=O)(=O)N2CCN(c3cnn(-c4cc(F)cc(F)c4)c(=O)c3OCC3(C)CC3)CC2)ccc1N,1.04
4,O=c1c(OC2CCCC2)c(N2CCN(S(=O)(=O)Cc3ccncc3)CC2)cnn1-c1cc(F)cc(F)c1,3.1
5,CC1(COc2c(N3CCN(S(=O)(=O)Cc4ccc(N)c(Cl)c4)CC3)cnn(-c3cc(F)cc(F)c3)c2=O)CC1,0.13
6,CNc1ccc(CS(=O)(=O)N2CCN(c3cnn(-c4cccc(Cl)c4)c(=O)c3OCC3(C)CC3)CC2)cc1,0.2
7,O=c1c(OC2CCCC2)c(N2CCN(S(=O)(=O)Cc3ccc(Cl)cc3)CC2)cnn1-c1cccc(Cl)c1,0.63
8,CC1(COc2c(N3CCN(S(=O)(=O)Cc4cccnc4N)CC3)cnn(-c3cccc(Cl)c3)c2=O)CC1,2.08
9,Nc1ccc(CS(=O)(=O)N2CCN(c3cnn(-c4cccc(Cl)c4)c(=O)c3OC3CCCC3)CC2)cc1,0.78
10,CC(C)c1cc(CS(=O)(=O)N2CCN(c3cnn(-c4cccc(Cl)c4)c(=O)c3OCC3(C)CC3)CC2)ccc1N,> 33
11,O=c1c(OC2CCCC2)c(N2CCN(S(=O)(=O)Cc3cc(C(F)(F)F)cc(C(F)(F)F)c3)CC2)cnn1-c1cccc(Cl)c1,> 50
12,O=c1c(OC2CCCC2)c(N2CCN(S(=O)(=O)Cc3ccc(F)cc3)CC2)cnn1-c1cccc(Cl)c1,1.56
13,CC1(COc2c(N3CCN(S(=O)(=O)Cc4ccc(N)c(F)c4)CC3)cnn(-c3cc(F)cc(F)c3)c2=O)CC1,0.26
14,CN(C)c1ccc(CS(=O)(=O)N2CCN(c3cnn(-c4cccc(Cl)c4)c(=O)c3OCC3(C)CC3)CC2)cc1,0.26
15,CC1(COc2c(N3CCN(S(=O)(=O)Cc4ccc(N)c(C(N)=O)c4)CC3)cnn(-c3cccc(Cl)c3)c2=O)CC1,> 33
16,O=C(O)c1ccc(CS(=O)(=O)N2CCN(c3cnn(-c4cccc(Cl)c4)c(=O)c3OC3CCCC3)CC2)cc1,> 50
17,O=c1c(OC2CCCC2)c(N2CCN(S(=O)(=O)Cc3ccccc3)CC2)cnn1-c1cc(F)cc(F)c1,0.39

# Test system: not listed separately
# Test: AUC (0 to 6 hrs) in rat at 10 mg/kg, po
# Format: ADME, organism-based, Plasma
# Set-up: time < 6 hr, dose 10 mg/kg, route oral
# Conditions: plasma
row,SMILES,AUC(0-t) at 6 h [ng·h/mL]
1,Cc1cc(CS(=O)(=O)N2CCN(c3cnn(-c4cccc(Cl)c4)c(=O)c3OCC3(C)CC3)CC2)ccc1N,15000
2,Nc1ccc(CS(=O)(=O)N2CCN(c3cnn(-c4cc(F)cc(F)c4)c(=O)c3OC3CCCC3)CC2)cc1,8100
3,Cc1cc(CS(=O)(=O)N2CCN(c3cnn(-c4cc(F)cc(F)c4)c(=O)c3OCC3(C)CC3)CC2)ccc1N,14500
4,O=c1c(OC2CCCC2)c(N2CCN(S(=O)(=O)Cc3ccncc3)CC2)cnn1-c1cc(F)cc(F)c1,20
5,CC1(COc2c(N3CCN(S(=O)(=O)Cc4ccc(N)c(Cl)c4)CC3)cnn(-c3cc(F)cc(F)c3)c2=O)CC1,1100
6,CC1(COc2c(N3CCN(S(=O)(=O)Cc4cccnc4N)CC3)cnn(-c3cccc(Cl)c3)c2=O)CC1,5200
7,CC(C)c1cc(CS(=O)(=O)N2CCN(c3cnn(-c4cccc(Cl)c4)c(=O)c3OCC3(C)CC3)CC2)ccc1N,2100
8,CC1(COc2c(N3CCN(S(=O)(=O)Cc4ccc(N)c(F)c4)CC3)cnn(-c3cc(F)cc(F)c3)c2=O)CC1,890

# Test system: Aspergillus fumigatus
# Test: Antifungal activity against Aspergillus fumigatus ND158 by broth dilution method
# Format: functional
# Conditions: read-out: MEC
row,SMILES,minimal effective concentration [µg/mL]
1,Cc1cc(CS(=O)(=O)N2CCN(c3cnn(-c4cccc(Cl)c4)c(=O)c3OCC3(C)CC3)CC2)ccc1N,2.08
2,Cc1cc(CS(=O)(=O)N2CCN(c3cnn(-c4cc(F)cc(F)c4)c(=O)c3OCC3(C)CC3)CC2)ccc1N,4.2
3,CC1(COc2c(N3CCN(S(=O)(=O)Cc4ccc(N)c(Cl)c4)CC3)cnn(-c3cc(F)cc(F)c3)c2=O)CC1,0.52
4,CNc1ccc(CS(=O)(=O)N2CCN(c3cnn(-c4cccc(Cl)c4)c(=O)c3OCC3(C)CC3)CC2)cc1,> 50
5,CC1(COc2c(N3CCN(S(=O)(=O)Cc4cccnc4N)CC3)cnn(-c3cccc(Cl)c3)c2=O)CC1,8.4
6,CC(C)c1cc(CS(=O)(=O)N2CCN(c3cnn(-c4cccc(Cl)c4)c(=O)c3OCC3(C)CC3)CC2)ccc1N,> 33
7,CC1(COc2c(N3CCN(S(=O)(=O)Cc4ccc(N)c(F)c4)CC3)cnn(-c3cc(F)cc(F)c3)c2=O)CC1,2.08
8,CN(C)c1ccc(CS(=O)(=O)N2CCN(c3cnn(-c4cccc(Cl)c4)c(=O)c3OCC3(C)CC3)CC2)cc1,16.7
9,CC1(COc2c(N3CCN(S(=O)(=O)Cc4ccc(N)c(C(N)=O)c4)CC3)cnn(-c3cccc(Cl)c3)c2=O)CC1,> 33

# Test system: not listed separately
# Test: Cmax in rat at 10 mg/kg, po
# Format: ADME, organism-based
# Set-up: dose 10 mg/kg, route oral
# Conditions: in vivo
row,SMILES,Cmax [ng/mL]
1,Cc1cc(CS(=O)(=O)N2CCN(c3cnn(-c4cccc(Cl)c4)c(=O)c3OCC3(C)CC3)CC2)ccc1N,3000
2,Cc1cc(CS(=O)(=O)N2CCN(c3cnn(-c4cc(F)cc(F)c4)c(=O)c3OCC3(C)CC3)CC2)ccc1N,3500
3,CC1(COc2c(N3CCN(S(=O)(=O)Cc4ccc(N)c(Cl)c4)CC3)cnn(-c3cc(F)cc(F)c3)c2=O)CC1,330
4,CC1(COc2c(N3CCN(S(=O)(=O)Cc4cccnc4N)CC3)cnn(-c3cccc(Cl)c3)c2=O)CC1,1700
5,CC(C)c1cc(CS(=O)(=O)N2CCN(c3cnn(-c4cccc(Cl)c4)c(=O)c3OCC3(C)CC3)CC2)ccc1N,700
6,CC1(COc2c(N3CCN(S(=O)(=O)Cc4ccc(N)c(F)c4)CC3)cnn(-c3cc(F)cc(F)c3)c2=O)CC1,310
